Measurements: patent publication US4849345A, “L-phenylalanine dehydrogenase and use thereof” (priority 1985, dated 1989)

Experiments:
Assay type in all cases: biochemical
[1] = target: T1, L-phenylalanine dehydrogenase produced by Bacillus sp. SCRC-R79a (Lysinibacillus sphaericus, UniProt P23307); assay: Substrate and coenzyme specificity, oxidative deamination (Bacillus enzyme); parameters: inoculated with Bacillus sp; endogenous in cells; host or cells: Bacillus sp; enzyme purified in house; details: oxidative deamination
T1 sequence (P23307 1-381): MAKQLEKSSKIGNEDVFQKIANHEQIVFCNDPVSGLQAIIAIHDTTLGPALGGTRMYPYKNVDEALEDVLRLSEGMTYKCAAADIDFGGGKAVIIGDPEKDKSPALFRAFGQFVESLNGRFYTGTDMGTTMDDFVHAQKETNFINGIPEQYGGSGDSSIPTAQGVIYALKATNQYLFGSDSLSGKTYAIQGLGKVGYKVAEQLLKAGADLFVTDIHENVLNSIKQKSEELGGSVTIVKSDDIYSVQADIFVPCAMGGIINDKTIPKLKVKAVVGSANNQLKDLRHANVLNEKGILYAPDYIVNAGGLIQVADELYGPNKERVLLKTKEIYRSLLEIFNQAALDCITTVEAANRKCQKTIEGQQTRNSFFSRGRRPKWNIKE
Procedure: The substrate concentration is 10 mM except for the L-tyrosine concentration which is 1.4 mM.

[2] = target: T2, L-phenylalanine dehydrogenase produced by Sporosarcina ureae SCRC-R04 (Sporosarcina ureae, UniProt P97014); assay: Substrate and coenzyme specificity, oxidative deamination (Sporosarcina enzyme); details: oxidative deamination
T2 sequence (P97014 1-379): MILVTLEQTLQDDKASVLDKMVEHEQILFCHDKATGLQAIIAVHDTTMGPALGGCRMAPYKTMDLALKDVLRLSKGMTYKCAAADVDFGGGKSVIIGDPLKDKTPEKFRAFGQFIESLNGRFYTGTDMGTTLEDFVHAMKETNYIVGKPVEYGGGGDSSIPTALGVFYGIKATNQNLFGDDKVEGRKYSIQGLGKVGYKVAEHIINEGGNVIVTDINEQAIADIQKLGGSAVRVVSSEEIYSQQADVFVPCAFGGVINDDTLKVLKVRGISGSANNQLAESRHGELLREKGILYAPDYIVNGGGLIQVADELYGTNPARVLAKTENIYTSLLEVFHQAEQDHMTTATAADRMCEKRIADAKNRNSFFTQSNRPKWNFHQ
Procedure: The substrate concentration is 10 mM, except for the L-tyrosine concentration which is 1.4 mM.

[3] = target: T1, L-phenylalanine dehydrogenase produced by Bacillus sp. SCRC-R79a; assay: Effect of metal ions and inhibitors on enzyme activity (Bacillus enzyme); parameters: inoculated with Bacillus sp; endogenous in cells; host or cells: Bacillus sp; enzyme purified in house; details: for Relative activity / activity at 1000 µM: not added = 100; for activity at 1000 µM: read-out: Relative activity
Procedure: Unless otherwise described, the concentration of metal cations and inhibitors is 1 mM.

[4] = target: T2, L-phenylalanine dehydrogenase produced by Sporosarcina ureae SCRC-R04; assay: biochemical; details: for Relative activity / activity at 1000 µM: not added = 100; for activity at 1000 µM: read-out: Relative activity

Compound: C[C@H](N)C(=O)O [L-alanine]
- action of the enzyme on the amino acid as substrate (in words) [1]: cannot serve as a substrate
- action of the enzyme on the amino acid as substrate (in words) [2]: cannot serve as a substrate

Compound: N=C(N)NCCC[C@H](N)C(=O)O [L-arginine]
- action of the enzyme on the amino acid as substrate (in words) [1]: cannot serve as a substrate
- action of the enzyme on the amino acid as substrate (in words) [2]: cannot serve as a substrate

Compound: NC(=O)C[C@H](N)C(=O)O [L-asparagine]
- action of the enzyme on the amino acid as substrate (in words) [1]: cannot serve as a substrate
- action of the enzyme on the amino acid as substrate (in words) [2]: cannot serve as a substrate

Compound: N[C@@H](CC(=O)O)C(=O)O [L-aspartic acid]
- action of the enzyme on the amino acid as substrate (in words) [1]: cannot serve as a substrate
- action of the enzyme on the amino acid as substrate (in words) [2]: cannot serve as a substrate

Compound: N[C@@H](CS)C(=O)O [L-cysteine]
- action of the enzyme on the amino acid as substrate (in words) [1]: cannot serve as a substrate
- action of the enzyme on the amino acid as substrate (in words) [2]: cannot serve as a substrate

Compound: N[C@@H](CCC(=O)O)C(=O)O [L-glutamic acid]
- action of the enzyme on the amino acid as substrate (in words) [1]: cannot serve as a substrate
- action of the enzyme on the amino acid as substrate (in words) [2]: cannot serve as a substrate

Compound: NC(=O)CC[C@H](N)C(=O)O [L-glutamine]
- action of the enzyme on the amino acid as substrate (in words) [1]: cannot serve as a substrate
- action of the enzyme on the amino acid as substrate (in words) [2]: cannot serve as a substrate

Compound: N[C@@H](Cc1c[nH]cn1)C(=O)O [L-histidine]
- action of the enzyme on the amino acid as substrate (in words) [1]: cannot serve as a substrate
- action of the enzyme on the amino acid as substrate (in words) [2]: cannot serve as a substrate

Compound: NCCCC[C@H](N)C(=O)O [L-lysine]
- action of the enzyme on the amino acid as substrate (in words) [1]: cannot serve as a substrate
- action of the enzyme on the amino acid as substrate (in words) [2]: cannot serve as a substrate

Compound: O=C(O)[C@@H]1CCCN1 [L-proline]
- action of the enzyme on the amino acid as substrate (in words) [1]: cannot serve as a substrate
- action of the enzyme on the amino acid as substrate (in words) [2]: cannot serve as a substrate

Compound: N[C@@H](CO)C(=O)O [L-serine]
- action of the enzyme on the amino acid as substrate (in words) [1]: cannot serve as a substrate
- action of the enzyme on the amino acid as substrate (in words) [2]: cannot serve as a substrate

Compound: C[C@@H](O)[C@H](N)C(=O)O [L-threonine]
- action of the enzyme on the amino acid as substrate (in words) [1]: cannot serve as a substrate
- action of the enzyme on the amino acid as substrate (in words) [2]: cannot serve as a substrate

Compound: CC[C@H](N)C(=O)O [L-α-amino-n-butyric acid]
- action of the enzyme on the amino acid as substrate (in words) [1]: cannot serve as a substrate

Compound: [Li+] [Li^+]
- Relative activity ([3]; 1 mM): 95%
- Relative activity ([4]; 1 mM): 96%

Compound: [Mg+2] [Mg^2+]
- Relative activity ([3]; 1 mM): 99%
- Relative activity ([4]; 1 mM): 90%

Compound: [Mn+2] [Mn^2+]
- Relative activity ([3]; 1 mM): 95%
- Relative activity ([4]; 1 mM): 129%

Compound: CCN1C(=O)C=CC1=O [N--Ethylmaleimide, N-ethylmaleimide]
- activity at 1000 µM ([3]; 1 mM): 162%
- effect on enzyme activity (in words) [4]: inhibited
- activity at 1000 µM ([4]; 1 mM): 21%

Compound: [N-]=[N+]=[N-].[Na+] [NaN3]
- Relative activity ([3]; 1 mM): 102%
- Relative activity ([4]; 1 mM): 100%

Compound: [Na+] [Na^+]
- Relative activity ([3]; 1 mM): 93%
- Relative activity ([4]; 1 mM): 92%

Compound: [Ni+2] [Ni^2+]
- Relative activity ([3]; 1 mM): 100%
- Relative activity ([4]; 1 mM): 100%

Compound: O=C(O)c1cc[c]([Hg][Cl])cc1 [PCMB]
- effect on enzyme activity (in words) [3]: inhibited
- Relative activity ([3]; 0.2 mM): 0%
- effect on enzyme activity (in words) [4]: inhibited
- Relative activity ([4]; 0.2 mM): 0%

Compound: [Pb+2] [Pb^2+]
- Relative activity ([3]; 1 mM): 53%
- Relative activity ([4]; 1 mM): 81%

Compound: [Sn+2] [Sn^2+]
- Relative activity ([3]; 0.5 mM): 110%
- Relative activity ([4]; 0.5 mM): 123%

Compound: [Zn+2] [Zn^2+]
- Relative activity ([3]; 1 mM): 96%
- Relative activity ([4]; 1 mM): 99%

Compound: c1cnc2c(c1)ccc1cccnc12 [o-Phenanthroline]
- activity at 1000 µM ([3]; 1 mM): 99%
- activity at 1000 µM ([4]; 1 mM): 103%

Compound: c1ccc(-c2ccccn2)nc1 [α,α'-Dipyridyl]
- activity at 1000 µM ([3]; 1 mM): 104%
- activity at 1000 µM ([4]; 1 mM): 124%
